# From ChEMBL document CHEMBL4680273, “Teixobactin: A Paving Stone toward a New Class of Antibiotics?” (2020)
# Where a SMILES comes first, the peptide text is derived from it. Bridges are numbered along the chain shown (N, C = ends). [ ]: non-standard residue; d: D form. d(aIle) = CC[C@H](C)[C@@H](N)C(=O)O; dNMeF = CN[C@H](Cc1ccccc1)C(=O)O
# Columns and labels:
# Type in all cases: functional
# [1] = tested on: Staphylococcus aureus; assay: Antibacterial activity against Staphylococcus aureus SH1000 incubated for 24 hrs by CLSI-broth microdilution method
# [2] = tested on: Bacillus subtilis; assay: Antibacterial activity against Bacillus subtilis ATCC 6051 incubated for 16 hrs by UV/Visible absorbance method
# [3] = tested on: Staphylococcus aureus; assay: Antibacterial activity against methicillin resistant Staphylococcus aureus ATCC 33591 incubated for 24 hrs
# [4] = tested on: Staphylococcus aureus; assay: Antibacterial activity against Staphylococcus aureus ATCC 29213 incubated for 16 hrs by UV/Visible absorbance method
# [5] = Staphylococcus aureus, SH1000, read-out: MIC
Structure (SMILES),"MIC [1, 5]",MIC [2],also measured
CC[C@H](C)[C@H](NC(=O)[C@@H](Cc1ccccc1)NC)C(=O)N[C@@H](CO)C(=O)N[C@H](CCC(N)=O)C(=O)N[C@@H](C(=O)N[C@H](C(=O)N[C@@H](CO)C(=O)N[C@H]1C(=O)N[C@@H](C)C(=O)N[C@@H](CCCNC(=N)N)C(=O)NC(CCCC(F)(F)F)C(=O)O[C@H]1C)[C@@H](C)CC)[C@@H](C)CC (stereo partly drawn),32 µg/mL,–,–
CCCCC1NC(=O)[C@H](CCCNC(=N)NC)NC(=O)[C@H](C)NC(=O)[C@H](NC(=O)[C@H](CO)NC(=O)[C@@H](NC(=O)[C@H](NC(=O)[C@@H](CCC(N)=O)NC(=O)[C@H](CO)NC(=O)[C@@H](NC(=O)[C@@H](Cc2ccccc2)NC)[C@@H](C)CC)[C@@H](C)CC)[C@@H](C)CC)[C@H](C)OC1=O (stereo partly drawn),4 µg/mL,–,–
CCCCC1NC(=O)[C@H](CCCN/C(=N\C)NC)NC(=O)[C@H](C)NC(=O)[C@H](NC(=O)[C@H](CO)NC(=O)[C@@H](NC(=O)[C@H](NC(=O)[C@@H](CCC(N)=O)NC(=O)[C@H](CO)NC(=O)[C@@H](NC(=O)[C@@H](Cc2ccccc2)NC)[C@@H](C)CC)[C@@H](C)CC)[C@@H](C)CC)[C@H](C)OC1=O (stereo in doubt; 127),–,–,MIC [1]: 16 µg/mL
CC[C@H](C)[C@H](NC(=O)[C@@H](Cc1ccccc1)NC)C(=O)N[C@@H](CO)C(=O)N[C@H](C)C(=O)N[C@@H](C(=O)N[C@H](C(=O)N[C@@H](C)C(=O)N[C@H]1C(=O)N[C@@H](C)C(=O)N[C@@H](CCCNC(=N)N)C(=O)N[C@@H]([C@@H](C)CC)C(=O)O[C@H]1C)[C@@H](C)CC)[C@@H](C)CC,–,–,MIC [3]: 1 µg/mL
CC[C@H](C)[C@H](NC(=O)[C@H](NC(=O)[C@@H](CCC(N)=O)NC(=O)[C@H](CO)NC(=O)[C@H](C)NC(=O)[C@@H](Cc1ccccc1)NC)[C@@H](C)CC)C(=O)N[C@@H](CO)C(=O)N[C@H]1C(=O)N[C@@H](C)C(=O)N[C@@H](CCCCN)C(=O)N[C@@H]([C@@H](C)CC)C(=O)O[C@H]1C,–,32 µg/mL,–
CC[C@H](C)[C@H](NC(=O)[C@@H](Cc1ccccc1)NC)C(=O)N[C@@H](CO)C(=O)N[C@H](CCC(N)=O)C(=O)N[C@@H](C(=O)N[C@H](C(=O)N[C@@H](CO)C(=O)N[C@H]1C(=O)N[C@@H](C)C(=O)N[C@@H](C)C(=O)N[C@@H]([C@@H](C)CC)C(=O)O[C@H]1C)[C@@H](C)CC)[C@@H](C)CC,–,–,MIC [4]: 1 µg/mL; MIC [3]: 1 µg/mL
CCCC1NC(=O)[C@H](CCCNC(=N)N)NC(=O)[C@H](C)NC(=O)[C@H](NC(=O)[C@H](CO)NC(=O)[C@@H](NC(=O)[C@H](NC(=O)[C@@H](CCC(N)=O)NC(=O)[C@H](CO)NC(=O)[C@@H](NC(=O)[C@@H](Cc2ccccc2)NC)[C@@H](C)CC)[C@@H](C)CC)[C@@H](C)CC)[C@H](C)OC1=O (stereo partly drawn),8 µg/mL,–,–
CC[C@H](C)[C@H](NC(=O)[C@@H](Cc1ccccc1)NC)C(=O)N[C@@H](CO)C(=O)N[C@H](CCC(N)=O)C(=O)N[C@@H](C(=O)N[C@H](C(=O)N[C@@H](CO)C(=O)N[C@H]1C(=O)N[C@@H](C)C(=O)N[C@H](C)C(=O)N[C@@H]([C@@H](C)CC)C(=O)O[C@H]1C)[C@@H](C)CC)[C@@H](C)CC,–,–,MIC [3]: 32 µg/mL
CC[C@H](C)[C@H](NC(=O)[C@@H](Cc1ccccc1)NC)C(=O)N[C@@H](CO)C(=O)N[C@H](CCC(N)=O)C(=O)N[C@@H](C(=O)N[C@H](C(=O)N[C@@H](CO)C(=O)N[C@H]1C(=O)N[C@@H](C)C(=O)N[C@@H](CCCNC(=N)N)C(=O)N[C@@H](C)C(=O)O[C@H]1C)[C@@H](C)CC)[C@@H](C)CC,≥ 32 µg/mL,–,–
CC[C@H](C)[C@H](NC(=O)[C@@H](Cc1ccccc1)NC)C(=O)N[C@@H](CO)C(=O)N[C@H](CCCCN)C(=O)N[C@@H](C(=O)N[C@H](C(=O)N[C@@H](C)C(=O)N[C@H]1C(=O)N[C@@H](C)C(=O)NC(CCCN)C(=O)N[C@@H]([C@@H](C)CC)C(=O)O[C@H]1C)[C@@H](C)CC)[C@@H](C)CC (stereo partly drawn),–,2 µg/mL,MIC [4]: 2 µg/mL
C=CCCC1NC(=O)[C@H](CCCNC(=N)N)NC(=O)[C@H](C)NC(=O)[C@H](NC(=O)[C@H](CO)NC(=O)[C@@H](NC(=O)[C@H](NC(=O)[C@@H](CCC(N)=O)NC(=O)[C@H](CO)NC(=O)[C@@H](NC(=O)[C@@H](Cc2ccccc2)NC)[C@@H](C)CC)[C@@H](C)CC)[C@@H](C)CC)[C@H](C)OC1=O (stereo partly drawn),32 µg/mL,–,–
CC[C@H](C)[C@@H]1NC(=O)[C@H](CCCNC(=N)N)NC(=O)[C@H](C)NC(=O)[C@H](NC(=O)[C@H](CO)NC(=O)[C@@H](NC(=O)[C@H](NC(=O)[C@@H](CCC(N)=O)NC(=O)[C@H](CO)NC(=O)[C@@H](NC(=O)[C@@H](Cc2ccccc2)NC)[C@@H](C)CC)[C@@H](C)CC)[C@@H](C)CC)[C@H](C)NC1=O,–,–,MIC [4]: 1 µg/mL
CCC1NC(=O)[C@H](CCCNC(=N)N)NC(=O)[C@H](C)NC(=O)[C@H](NC(=O)[C@H](CO)NC(=O)[C@@H](NC(=O)[C@H](NC(=O)[C@@H](CCC(N)=O)NC(=O)[C@H](CO)NC(=O)[C@@H](NC(=O)[C@@H](Cc2ccccc2)NC)[C@@H](C)CC)[C@@H](C)CC)[C@@H](C)CC)[C@H](C)OC1=O (stereo partly drawn),16 µg/mL,–,–
CC[C@H](C)[C@H](NC(=O)[C@@H](Cc1ccccc1)NC)C(=O)N[C@@H](C)C(=O)N[C@H](CCC(N)=O)C(=O)N[C@@H](C(=O)N[C@H](C(=O)N[C@@H](CO)C(=O)N[C@H]1C(=O)N[C@@H](C)C(=O)N[C@@H](CCCNC(=N)N)C(=O)N[C@@H]([C@@H](C)CC)C(=O)O[C@H]1C)[C@@H](C)CC)[C@@H](C)CC,–,–,MIC [3]: 1 µg/mL

# Continued, in another order:
"MIC [1, 5]",MIC [2],Structure (SMILES),also measured
16 µg/mL,–,CCCCC1NC(=O)[C@H](CCCN/C(=N\C)NC)NC(=O)[C@H](C)NC(=O)[C@H](NC(=O)[C@H](CO)NC(=O)[C@@H](NC(=O)[C@H](NC(=O)[C@@H](CCC(N)=O)NC(=O)[C@H](CO)NC(=O)[C@@H](NC(=O)[C@@H](Cc2ccccc2)NC)[C@@H](C)CC)[C@@H](C)CC)[C@@H](C)CC)[C@H](C)OC1=O (stereo in doubt; 128),–
–,1 µg/mL,CC[C@H](C)[C@H](NC(=O)[C@@H](Cc1ccccc1)NC)C(=O)N[C@@H](CO)C(=O)N[C@H](CCC(N)=O)C(=O)N[C@@H](C(=O)NC(C(=O)N[C@@H](CO)C(=O)N[C@H]1C(=O)N[C@@H](C)C(=O)N[C@@H](CCCNC(=N)N)C(=O)NC(C2CCCCC2)C(=O)O[C@H]1C)C1CCCCC1)[C@@H](C)CC (stereo partly drawn),–
–,16 µg/mL,CC[C@H](C)[C@H](NC(=O)[C@@H](C)NC(=O)[C@@H](CCC(N)=O)NC(=O)[C@H](CO)NC(=O)[C@@H](NC(=O)[C@@H](Cc1ccccc1)NC)[C@@H](C)CC)C(=O)N[C@@H](CO)C(=O)N[C@H]1C(=O)N[C@@H](C)C(=O)N[C@@H](CCCCN)C(=O)N[C@@H]([C@@H](C)CC)C(=O)O[C@H]1C,–
–,4 µg/mL,CC[C@H](C)[C@H](NC(=O)[C@@H](Cc1ccccc1)NC)C(=O)N[C@@H](CO)C(=O)N[C@H](C)C(=O)N[C@@H](C(=O)N[C@H](C(=O)N[C@@H](C)C(=O)N[C@H]1C(=O)N[C@@H](C)C(=O)N[C@@H](CCCCN)C(=O)N[C@@H]([C@@H](C)CC)C(=O)O[C@H]1C)[C@@H](C)CC)[C@@H](C)CC,MIC [4]: 1 µg/mL
–,8 µg/mL,CC[C@H](C)[C@H](NC(=O)[C@@H](Cc1ccccc1)NC)C(=O)N[C@@H](CO)C(=O)N[C@H](CCC(N)=O)C(=O)N[C@@H](C(=O)N[C@H](C(=O)N[C@@H](CO)C(=O)N[C@H]1C(=O)N[C@@H](C)C(=O)N[C@@H](CCCCN)C(=O)N[C@@H](C)C(=O)O[C@H]1C)[C@@H](C)CC)[C@@H](C)CC (H-[dNMeF]IS[dQ][d(aIle)]IS[dT]AKA; ester 8-C),MIC [4]: 4 µg/mL
